Assay results published in patent US20250034182A1, “PHOSPHOLIPID COMPOUNDS AND METHODS OF MAKING AND USING THE SAME” (priority 2021, published 2025).

Columns and labels:
Format in all cases: cell-based
[1] = tested on: Human Rhinovirus 1B (HRV1B) in H1-HeLa cells; assay: H1-HeLa HRV-CTG EC50, HRV1B (Example Z); details: Rhinovirus A, 96 h, MOI 0.5, 4 days, Celltiter-Glo, read-out: HRV 1B HELA EC50 (nM) (per Ex. Z)
Source text: (§1) H1-Hela cell line (ATCC, Manassas, VA, Cat #CRL-1958) was maintained in Dulbecco's […] (DMEM) (Corning, New York, NY, Cat #15-018CM) supplemented with 10% fetal bovine serum (FBS) (Hyclone, Logan, UT, Cat #SH30071-03), and 1× Penicillin-Streptomycin-L-Glutamine (Coming, New York, NY, Cat #30-009-C1). Cells were passaged 2 times per week to maintain sub-confluent densities and were used for experiments at passage 5-30. The Human Rhinovirus 1B (HRV1B) (ATCC, Manassas, VA, Cat #VR-1645), Human Rhinovirus 14 (HRV14) (ATCC, Manassas, VA, Cat #VR-284), and Human Rhinovirus 16 (HRV16) (ATCC, Manassas, VA, Cat #BR-283) was obtained through ATCC. Viral infection was monitored by determining viability of H1-HeLa cells as described below.
(§2) Test molecules are prepared in 100% DMSO in 384-well polypropylene plates (Greiner, Monroe, NC, Cat #784201) with 8 compounds per plate in grouped replicates of 4 at 10 serially diluted concentrations (1:3). The serially diluted compounds were transferred to low dead volume Echo plates (Labcyte, Sunnyvale, CA, Cat #LP-0200).
(§3) The test compounds were spotted to 384-well assay plates (Greiner, Monroe, NC, Cat #781091) at 200 nL per well using an Echo acoustic dispenser (Labcyte, Sunnyvale, CA). H1-HeLa cells were harvested and suspended in DMEM (supplemented with 2% FBS and 1× Penicillin-Streptomycin-L-Glutamine) and seeded to the pre-spotted assay plates at 5,000 cells per well in 30 μL. HRV1B, HRV14, and HRV16 was diluted in DMEM (supplemented with 2% FBS and 1× Penicillin-Streptomycin-L-Glutamine) at 97.1 million Infectious Units (IU) per mL, 151 million IU per mL and 221 million IU per mL respectively. 10 μL of virus per well was added to the assay plates containing cells and compounds, for an MOI of 0.5, 1.0, and 0.25 respectively. The assay plates were incubated for 4 days at 37° C. and 5% CO2. At the end of incubation, Celltiter-Glo (Promega, Madison, WI, Cat #G7573) was prepared. The assay plates and Celltiter-Glo reagent were equilibrated to room temperature for at least 15 minutes. 40 μL per well of Celltiter-Glo reagent was added and the plates were incubated at room temperature for 15 minutes before reading the luminescence signal on an EnVision multimode plate reader (Perkin Elmer, Waltham, MA). Rupintrivir was used as positive control and DMSO was used as negative control. Values were normalized to the positive and negative controls (as 0% and 100% replication, respectively) and data was fitted using non-linear regression analysis by Gilead's dose response tool. The EC50 value for each compound was defined as the concentration reducing viral replication by 50%.

[2] = tested on: Human Rhinovirus 14 (HRV14) in H1-HeLa cells; assay: H1-HeLa HRV-CTG EC50, HRV14 (Example Z); details: Rhinovirus B, HRV14, 96 h, MOI 1.0, 4 days, Celltiter-Glo, read-out: HRV14 HELA EC50 (nM) (per Ex. Z)
Source text: as §1, §2, §3

[3] = tested on: Respiratory syncytial virus recombinant with luciferase (RSV-Luc5) in HEp-2 cells; assay: HEp-2 RSV-Luc5 384-well assay (EC50 RSVFLUC Hep2-384 v2, Example V); details: human respiratory syncytial virus, HEp-2, 72 h, read-out: RSV Hep-2 FLuc EC50 (v2) (nM) (per Ex. V)
Summary of the method: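 HEp-2 cells (4,000/well) infected with RSV-Luc5 at MOI 0.5 in DMEM/10% FBS with compound, 10-point 1:3 dilutions, 3 days at 37 °C. Replication read by One-Glo luminescence, normalized to remdesivir (0%) and DMSO (100%). EC50 from non-linear regression as concentration giving 50% reduction.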

[4] = tested on: Human Rhinovirus 16 (HRV16) in H1-HeLa cells; assay: H1-HeLa HRV-CTG EC50, HRV16 (Example Z); details: Rhinovirus A, HRV16, 96 h, MOI 0.25, 4 days, Celltiter-Glo, read-out: HRV 16 HELA EC50 (nM) (per Ex. Z)
Source text: as §1, §2, §3

[5] = RSV HEP2-CC50-384-V2 (per Ex. V); details: human

SMILES	EC50 [1] [nM]	EC50 [2] [nM]	EC50 [3] [nM]	EC50 [4] [nM]	CC50 at 3 days [5] [nM]
CCCCCCCCCCCCCCCCCCC[C@H](COP(=O)(O)OC[C@@]1(C#N)O[C@@H](c2ccc3c(N)ncnn23)[C@H](O)[C@@H]1O)Oc1cc(OC)c(C#N)c(OC)c1 [Compound 39, ((2R,3S,4R,5S)-5-(4-aminopyrrolo[2,1-f][1,2,4]triazin-7-yl)-2-cyano-3,4-dihydroxytetrahydrofuran-2-yl)methyl ((R)-2-(4-cyano-3,5-dimethoxyphenoxy)henicosyl) hydrogen phosphate]	18	34	327	35	> 41400
CCCCCCCCCCCCCCCCCCOCC(COc1cc(F)cc(C#N)c1)COP(=O)(O)OC[C@@]1(C#N)O[C@@H](c2ccc3c(N)ncnn23)[C@H](O)[C@@H]1O (stereo partly drawn) [Compound 43, ((2R,3S,4R,5S)-5-(4-aminopyrrolo[2,1-f][1,2,4]triazin-7-yl)-2-cyano-3,4-dihydroxytetrahydrofuran-2-yl)methyl (3-(3-cyano-5-fluorophenoxy)-2-((octadecyloxy)methyl)propyl) hydrogen phosphate]	36	75	707	53	> 30300
CCCCCCCCCCCCCCCCCCCC[C@H](COP(=O)(O)OC[C@@]1(C#N)O[C@@H](c2ccc3c(N)ncnn23)[C@H](O)[C@@H]1O)Oc1cccc(C#N)c1 [Compound 51, ((2R,3S,4R,5S)-5-(4-aminopyrrolo[2,1-f][1,2,4]triazin-7-yl)-2-cyano-3,4-dihydroxytetrahydrofuran-2-yl)methyl ((R)-2-(3-cyanophenoxy)docosyl) hydrogen phosphate]	33	49	436	34	> 46200
CCCCCCCCCCCCCCCCCOC[C@H](COP(=O)(O)OC[C@@]1(C#N)O[C@@H](c2ccc3c(N)ncnn23)[C@H](O)[C@@H]1O)OCc1cc(F)cc(C#N)c1 [Compound 53, ((2R,3S,4R,5S)-5-(4-aminopyrrolo[2,1-f][1,2,4]triazin-7-yl)-2-cyano-3,4-dihydroxytetrahydrofuran-2-yl)methyl ((R)-2-((3-cyano-5-fluorobenzyl)oxy)-3-(heptadecyloxy)propyl) hydrogen phosphate]	34	35	200	35	32100
CCCCCCCCCCCCCCCCCCOC[C@H](COP(=O)(O)OC[C@@]1(C#N)O[C@@H](c2ccc3c(N)ncnn23)[C@H](O)[C@@H]1O)OCc1cccc(C#N)n1 [Compound 68, ((2R,3S,4R)-5-(4-aminopyrrolo[2,1-f][1,2,4]triazin-7-yl)-2-cyano-3,4-dihydroxytetrahydrofuran-2-yl)methyl ((R)-2-((6-cyanopyridin-2-yl)methoxy)-3-(octadecyloxy)propyl) hydrogen phosphate]	12	35	110	20	42800
CCCCCCCCCCCCCCOC[C@H](COP(=O)(O)OC[C@@]1(C#N)O[C@@H](c2ccc3c(N)ncnn23)[C@H](O)[C@@H]1O)Oc1cc(C#N)ccn1 [Compound 69, ((2R,3S,4R)-5-(4-aminopyrrolo[2,1-f][1,2,4]triazin-7-yl)-2-cyano-3,4-dihydroxytetrahydrofuran-2-yl)methyl ((R)-2-((4-cyanopyridin-2-yl)oxy)-3-(tetradecyloxy)propyl) hydrogen phosphate]	116	106	674	109	> 50000
CCCCCCCCCCCCCCCCCCCC[C@@H](COP(=O)(O)OC[C@@]1(C#N)O[C@@H](c2ccc3c(N)ncnn23)[C@H](O)[C@@H]1O)OCc1cc(F)cc(C#N)c1 [Compound 70, ((2R,3S,4R)-5-(4-aminopyrrolo[2,1-f][1,2,4]triazin-7-yl)-2-cyano-3,4-dihydroxytetrahydrofuran-2-yl)methyl ((S)-2-((3-cyano-5-fluorobenzyl)oxy)docosyl) hydrogen phosphate]	84	162	1770	114	43500
CCCCCCCCCCCCCCCCCCOC[C@@H](COP(=O)(O)OC[C@@]1(C#N)O[C@@H](c2ccc3c(N)ncnn23)[C@H](O)[C@@H]1O)Oc1ccc(C#N)nc1 [Compound 72, ((2R,3S,4R,5S)-5-(4-aminopyrrolo[2,1-f][1,2,4]triazin-7-yl)-2-cyano-3,4-dihydroxytetrahydrofuran-2-yl)methyl ((S)-2-((6-cyanopyridin-3-yl)oxy)-3-(octadecyloxy)propyl) hydrogen phosphate]	3	3	45	3	> 49900
CCCCCCCCCCCCCCCCCCOC[C@H](COP(=O)(O)OC[C@@]1(C#N)O[C@@H](c2ccc3c(N)ncnn23)[C@H](O)[C@@H]1O)OCc1ccc(C#N)cc1OC [Compound 73, ((2R,3S,4R)-5-(4-aminopyrrolo[2,1-f][1,2,4]triazin-7-yl)-2-cyano-3,4-dihydroxytetrahydrofuran-2-yl)methyl ((R)-2-((4-cyano-2-methoxybenzyl)oxy)-3-(octadecyloxy)propyl) hydrogen phosphate]	12	26	104	29	> 47000
CCCCCCCCCCCCCCCCC[C@@H](COP(=O)(O)OC[C@@]1(C#N)O[C@@H](c2ccc3c(N)ncnn23)[C@H](O)[C@@H]1O)OCc1cc(F)cc(C#N)c1 [Compound 74, ((2R,3S,4R)-5-(4-aminopyrrolo[2,1-f][1,2,4]triazin-7-yl)-2-cyano-3,4-dihydroxytetrahydrofuran-2-yl)methyl ((S)-2-((3-cyano-5-fluorobenzyl)oxy)nonadecyl) hydrogen phosphate]	24	67	782	49	28000
CCCCCCCCCCCCCCOC[C@H](COP(=O)(O)OC[C@@]1(C#N)O[C@@H](c2ccc3c(N)ncnn23)[C@H](O)[C@@H]1O)OCc1ccc(C#N)cc1F [Compound 75, ((2R,3S,4R,5S)-5-(4-aminopyrrolo[2,1-f][1,2,4]triazin-7-yl)-2-cyano-3,4-dihydroxytetrahydrofuran-2-yl)methyl ((R)-2-((4-cyano-2-fluorobenzyl)oxy)-3-(tetradecyloxy)propyl) hydrogen phosphate]	23	37	446	37	> 48500
CCCCCCCCCCCCCCCC[C@H](COP(=O)(O)OC[C@@]1(C#N)O[C@@H](c2ccc3c(N)ncnn23)[C@H](O)[C@@H]1O)OCc1cc(F)cc(C#N)c1 [Compound 78, ((2R,3S,4R,5S)-5-(4-aminopyrrolo[2,1-f][1,2,4]triazin-7-yl)-2-cyano-3,4-dihydroxytetrahydrofuran-2-yl)methyl ((R)-2-((3-cyano-5-fluorobenzyl)oxy)octadecyl) hydrogen phosphate]	24	38	439	66	34600
